# Measurements as given in patent US6646008B1, “Treatment of disease states which result from neoplastic cell proliferation using PPAR-γ activators and compositions useful therefor” (The Salk Institute for Biological Studies, priority 1996, dated 2003).
# Assays:
# HL-60 leukemia cells = test: CD14 differentiation antigen flow cytometry in HL-60 cells; type: cell-based; conditions: 5 days, 10 nM AM580, 100 nM LG268, 3 μM 15-deoxy-Δ12,14-prostaglandin-J2
# Experimental: (§1) HL-60 and THP-1 leukemia cells were seeded at a ensity of 2×10^5 cells/ml and cultured in RPMI containing 10% charcoal-stripped fetal calf serum. Cells were treated with either vehicle alone, or 10 nM AM580, 100 nM LG268, or 3 μM 15-deoxy-Δ12,14-prostaglandin-J2. After 5 days, cells were incubated with monoclonal antibody to the monocyte-specific differentiation antigen CD14, and analyzed by flow cytometry using a Becton Dickinson FACScan.
# NIH-PPARγ cells = test: Adipocyte differentiation (oil red O lipid staining) of NIH-3T3 fibroblasts expressing PPARγ from a retroviral vector; type: cell-based; conditions: for % lipid containing cells: NIH-PPARγ cells, treated 7 days at confluence, 1 μM pioglitazone, 50 nM LG268, or 5 μM thiazolidinedione and 50 nM LG268, oil red O after four more days, range over three experiments
# Experimental: Simultaneous exposure of competent cells to both PPARγ and RXR-specific ligand was investigated to determine if such combination might provide a stronger adipogenic signal than a PPARγ ligand alone. […] NIH-vector and NIH-PPARγ cells were cultured as described in the Examples.
# LS857 cells = test: Differentiation of primary liposarcoma cell strain LS857 (lipid accumulation, morphology); type: cell-based, human; conditions: 7 days
# NIH-vector cells = test: Adipocyte differentiation (oil red O lipid staining) of NIH-vector cells; type: cell-based; conditions: for % lipid containing cells: NIH (vector) cells, treated 7 days at confluence, 1 μM pioglitazone, 50 nM LG268, or 5 μM thiazolidinedione and 50 nM LG268, oil red O after four more days, range over three experiments
# Experimental: Simultaneous exposure of competent cells to both PPARγ and RXR-specific ligand was investigated to determine if such combination might provide a stronger adipogenic signal than a PPARγ ligand alone. […] It has previously been shown that wild-type NIH-3T3 cells express RXRα but not PPARγ. NIH-vector and NIH-PPARγ cells were cultured as described in the Examples. […] After an additional four days of culture, cells were fixed and stained with oil red O. Data are presented in Table 1 as the range of morphologically recognizable differentiation observed for each line over three separate experiments.
# LS175 cells = test: Differentiation of primary liposarcoma cell strain LS175; type: cell-based, human; conditions: 10 μM pioglitazone, 7 days
# Experimental: Liposarcomas have presumably acquired one or more genetic defects that interfere with the course of normal adipocyte development. The observation that PPARγ is expressed consistently in these tumors raised the possibility that the malignant cells might be forced to complete the differentiation program by maximally iactivating the PPARγ pathway. To address this possibility, primary cells isolated from three human liposarcomas were cultured in vitro. Primary cell strains LS857 and LS175 were derived from well differentiated liposarcomas and LS707 was derived from an intermediate grade myxoid/round cell liposarcoma (see Table 5). High grade pleomorphic liposarcoma cells could not be expanded to sufficient numbers to permit studies of differentiation. A primary leiomyosarcoma cell line LM203 was cultured as a control. To confirm that these cultures consisted of malignant tumor-derived cells, cytogenetic analysis was performed.
# When cultured in the presence of fetal bovine serum and insulin, conditions permissive for adipocyte differentiation, all three cell lines maintain a fibroblastic morphology. LS175 cells contained small amounts of stainable lipid under these conditions. […] The degree of morphologically recognizable differentiation varied from 40% in the LS857 cells to 75% in the LS175 cells. […]
# THP-1 leukemia cells = test: CD14 differentiation antigen flow cytometry in THP-1 cells; type: cell-based; conditions: 5 days, 100 nM LG268, 3 μM 15-deoxy-Δ12,14-prostaglandin-J2
# Experimental: as §1
# HL-60 cells [1] = test: Growth of HL-60 cells in the presence of ligands; type: cell-based; conditions: 100 nM 9-cis RA, 100 nM LG268, 3 μM PG-J2, cell numbers after 3, 5 or 7 days
# Experimental: (§2) HL-60 cells were plated at a density of 2×10^5 cells/ml and were treated with:
# (§3) 100 nM 9-cis retinoic acid (9-cis RA; which is both RAR and RXR active),
# (§4) 100 nM LG268 (which is RXR selective),
# (§5) 3 μM prostaglandin J2 (PG-J2; which is PPARγ active), or
# (§6) a combination of 100 nM of LG268 and 3 μM of PG-J2.
# Cell numbers were determined after 3, 5 or 7 days of culture, as illustrated in FIG. 1.
# HL-60 cells [2] = test: Cell cycle analysis of HL-60 cells by flow cytometry (DNA content); type: cell-based; conditions: for Cell Cycle Phase, % G1 / Cell Cycle Phase, % G2 / Cell Cycle Phase, % S: day 3, 100 nM 9-cis RA, 100 nM LG268, 3 μM PG-J2
# Experimental: as §2, §3, §4, §5, §6
# Cell cycle analysis was carried out on day 3 using standard DNA content determination by flow cytometry.
compound,measurement,setting,value
AM580,median fluorescence (CD14),HL-60 leukemia cells,26
CCc1ccc(CCOc2ccc(CC3SC(=O)NC3=O)cc2)nc1 (stereo not shown) [pioglitazone],% lipid containing cells,NIH-PPARγ cells,60-70%
same,degree of morphologically recognizable differentiation,LS857 cells; 10 μM pioglitazone,40%
same,% lipid containing cells,NIH-vector cells,0%
same,degree of morphologically recognizable differentiation,LS175 cells,75%
"Cc1cc2c(cc1C1(c3ccc(C(=O)O)cn3)CC1)C(C)(C)CCC2(C)C [LG268, 6-[1-(3,5,5,8,8-pentamethyl-5,6,7,8-tetrahydronaphthalen-2-yl)cyclopropyl]nicotinic acid]",% lipid containing cells,NIH-PPARγ cells,50-65%
same,adipocyte differentiation,"NIH-PPARγ cells; confluent NIH-PPARγ cells, 7 days, 50 nM LG268 and/or 1 μM pioglitazone",significant stimulation of adipocyte differentiation
same,adipocyte differentiation,"LS857 cells; 50 nM LG268, 10 μM pioglitazone",significant degree of adipocyte differentiation
same,"lipid accumulation, oil red O, macroscopic view","LS857 cells; 5 μM thiazolidinedione (BRL 49653 or pioglitazone), 50 nM LG268, stained after four more days",significant lipid accumulation
same,% lipid containing cells,NIH-vector cells,0%
same,adipogenic effect,NIH-vector cells; NIH-vector cells,no effect
same,median fluorescence (CD14),HL-60 leukemia cells,138
same,median fluorescence (CD14),THP-1 leukemia cells,18
same,effect on cell growth,HL-60 cells [1],only a marginal ability to promote cell differentiation
same,"Cell Cycle Phase, % G1",HL-60 cells [2],54.5%
same,"Cell Cycle Phase, % G2",HL-60 cells [2],14.4%
same,"Cell Cycle Phase, % S",HL-60 cells [2],31.1%
"CC1=C(/C=C/C(C)=C\C=C\C(C)=C\C(=O)O)C(C)(C)CCC1 [9-cis RA, 9-cis retinoic acid]",effect on cell growth,HL-60 cells [1],inhibit cell growth
same,effect on cell cycle progression,HL-60 cells [2]; day 3,inhibits cell cycle progression
same,"Cell Cycle Phase, % G1",HL-60 cells [2],70.5%
same,"Cell Cycle Phase, % G2",HL-60 cells [2],10.2%
same,"Cell Cycle Phase, % S",HL-60 cells [2],19.2%
